SMILES strings stand for the structures. Read-outs that look alike come from different tables or passages of the source.

The target in experiment [1] is β-galactosidase (LacZ) (Escherichia coli, UniProt P00722). Briefly: fluorescence plate reader, Michaelis-Menten fit. The experiment is classed as biochemical. Particulars: 10 mM HEPES pH 7.4.
Experiment [2] has as its system Td2F2. The experiment is described as follows: fluorescence plate reader, Michaelis-Menten fit. In kind it is biochemical, uncultured bacterium. To be noted: 10 mM HEPES pH 7.4.
In experiment [3] the test system is Td2F2. Particulars: 10 mM HEPES pH 7.4; Mutant A.

β-galactosidase (LacZ), sequence (P00722 2-1024): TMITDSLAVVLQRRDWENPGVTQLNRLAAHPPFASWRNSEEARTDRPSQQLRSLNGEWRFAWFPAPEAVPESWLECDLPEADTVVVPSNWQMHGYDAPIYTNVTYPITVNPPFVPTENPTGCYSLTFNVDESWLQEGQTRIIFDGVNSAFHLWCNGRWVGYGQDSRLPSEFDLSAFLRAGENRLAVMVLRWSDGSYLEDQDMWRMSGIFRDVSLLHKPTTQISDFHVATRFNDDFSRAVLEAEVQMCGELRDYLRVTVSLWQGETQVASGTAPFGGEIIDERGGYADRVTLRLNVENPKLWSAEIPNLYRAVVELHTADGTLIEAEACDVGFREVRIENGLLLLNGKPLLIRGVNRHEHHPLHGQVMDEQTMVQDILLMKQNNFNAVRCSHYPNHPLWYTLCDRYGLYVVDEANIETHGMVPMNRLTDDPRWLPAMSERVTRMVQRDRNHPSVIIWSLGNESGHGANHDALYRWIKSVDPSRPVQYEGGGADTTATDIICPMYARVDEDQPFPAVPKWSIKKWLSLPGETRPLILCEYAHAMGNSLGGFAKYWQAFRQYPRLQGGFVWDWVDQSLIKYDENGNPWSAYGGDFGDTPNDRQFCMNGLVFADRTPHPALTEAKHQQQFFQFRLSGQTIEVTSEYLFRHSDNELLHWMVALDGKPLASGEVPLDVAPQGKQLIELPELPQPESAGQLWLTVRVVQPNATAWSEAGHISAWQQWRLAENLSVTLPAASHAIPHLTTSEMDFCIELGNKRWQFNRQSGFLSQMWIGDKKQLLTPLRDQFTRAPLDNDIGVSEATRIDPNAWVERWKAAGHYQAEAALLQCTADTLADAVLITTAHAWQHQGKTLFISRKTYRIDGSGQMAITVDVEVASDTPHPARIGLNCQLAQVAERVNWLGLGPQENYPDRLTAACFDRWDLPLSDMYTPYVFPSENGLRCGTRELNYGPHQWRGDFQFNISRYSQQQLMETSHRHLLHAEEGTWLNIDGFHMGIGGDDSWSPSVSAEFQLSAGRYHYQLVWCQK

On to `OC[C@H]1O[C@@H](Oc2ccc3c(c2)Oc2cc(NCC(F)(F)F)ccc2C32OCc3ccccc32)[C@H](O)[C@@H](O)[C@H]1O` (stereo partly drawn) [HMRef-β-D-Gal], for which the Km in experiment [1] is 73 µM.

For `C[C@H]1O[C@@H](Oc2ccc3c(c2)Oc2cc(NCC(F)(F)F)ccc2C32OCc3ccccc32)[C@H](O)[C@@H](O)[C@H]1O` (stereo partly drawn) [HMRef-β-D-Fuc, HMRef-β-D-fucose], the Michaelis-Menten constant (Km) in experiment [2] amounted to 190 µM; in experiment [3] it was 3.7 µM.

Usually Km stands for the concentration of substrate that gives half-maximal velocity.

For the origin of these results see article doi:10.1101/2025.03.04.641560v1 (biorxiv, 2025).
